Data as given in patent US6251897A, “6-phenyltetrahydro-1,3-oxazin-2-one derivative and pharmaceutical composition containing the same” (Nikken Chemicals Co., LTD, priority 1996, dated 2001).

Each compound was assayed on Type IV PDE (assay: PDE inhibitory activity, type IV isozyme (3H-cAMP hydrolysis)). Settings: partially purified from rat neutrophils, 30° C., 30 minutes.
Type: biochemical
Experimental: Type I, III, IV, and V PDE isozymes were prepared to study the PDE inhibitory activities and selectivities with the compound of the invention [Trends Pharmacol. Sci., 12, 19-27 (1992)]. Type I PDE was purchased from Sigma Corp. Type III, IV, and V PDE isozymes were partially purified from rats platelets (Type III and V) or neutrophils (Type IV). Each enzyme source was homogenized in a buffer (pH 6.5) containing 20 mM bisTris, 2 mM EDTA (ethylenediamine tetraacetate), 0.1 mM PMSF (phenylmethylsulfonyl fluoride), 5 mM 2-mercaptoethanol, 0.001 mM pepstatin, and 0.01 mM leupeptin and was centrifuged at 30,000×G for 30 minutes to obtain a supernatant, which was applied to an ion exchange column (Q-sepharose First Flow, Pharmacia Corp.) and was eluted with 0 to 1M sodium acetate. Partially purified isozymes were identified by observing the effects of conventional inhibitors.
Each PDE isozyme and the test compound dissolved in DMSO (dimethyl sulfoxide) were added to 50 mM Tris-HCl buffer containing 5 mM magnesium chloride. ^3 H-cAMP (for type III and IV PDE) or ^3 H-cGMP (for type I and V PDE) were added as substrates and were reacted at 30° C. for 30 minutes. The reaction was terminated by placing the test tube in boiling water of 100° C. for 5 minutes. The nucleotides formed by PDE were broken down by 5'-nucleotidase to ^3 H-adenosine or ^3 H-guanosine. The unreacted substrate and reaction product were separated through an ion-exchange column (QAE sephadex, Pharmacia Corp.) The eluted ^3 H-nucleoside was measured for its radioactivity by a liquid scintillation counter. The inhibiting activities of the compound of the present invention are shown by the IC50 value (M). Further, the inhibitory activities of the test samples against Type I, III, and V are 1/10 or less than that against type IV.

| SMILES | IC50 |
| --- | --- |
| COc1ccc(C2CCN(Cc3cccs3)C(=O)O2)cc1OC1CCCC1 (centres unmarked) [Compound No. 38, 6-(3-cyclopentyloxy-4-methoxyphenyl)-3-(2-thienylmethyl)-3,4.56-tetrahydro-2H-1,3-oxazin-2-one] | 2200 nM |
| COc1ccc(C2CCNC(=O)O2)cc1OCCc1scnc1C (centres unmarked) [Compound No. 72, 6-[4-methoxy-3-[2-(4-methyl-5-thiazolyl)ethoxy]phenyl]-3,4,5,6-tetrahydro-2H-1,3-oxazin-2-one] | 8300 nM |
| CCCCC1(c2ccc(OC)c(OC3CCCC3)c2)CCNC(=O)O1 (centres unmarked) [Compound No. 30, 6-butyl-6-(3-cyclopentyloxy-4-methoxyphenyl)-3,4,5,6-tetrahydro-2H-1,3-oxazin-2-one] | 9000 nM |
| CCCCOc1cc(C2CCNC(=O)O2)ccc1OC (centres unmarked) [Compound No. 3, 6-(3-butoxy-4-methoxyphenyl)-3,4,5,6-tetrahydro-2H-1,3-oxazin-2-one] | 6800 nM |
| COc1ccc(C2CCN(CCN3CCOCC3)C(=O)O2)cc1OC1CCCC1 (centres unmarked) [Compound No. 33, 6-(3-cyclopentyloxy-4-methoxyphenyl)-3-[2-(4-morpholino)ethyl]-3,4,5,6-tetrahydro-2H-1,3-oxazin-2-one] | 8800 nM |
| COc1ccc(C2(C)CCN(Cc3ccncc3)C(=O)O2)cc1OC1CCCC1 (centres unmarked) [Compound No. 22, 6-(3-cyclopentyloxy-4-methoxyphenyl)-6-methyl-3-(4-pyridylmethyl)-3,4,5,6-tetrahydro-2H-1,3-oxazin-2-one] | 5900 nM |
| COc1ccc(C2(c3cccs3)CCNC(=O)O2)cc1OC1CCCC1 (centres unmarked) [Compound No. 29, 6-(3-cyclopentyloxy-4-methoxyphenyl)-6-(2-thienyl)-3,4,5,6-tetrahydro-2H-1,3-oxazin-2-one] | 3400 nM |
| COc1ccc(C2(c3nccs3)CCNC(=O)O2)cc1OC (centres unmarked) [Compound No. 27, 6-(3,4-dimethoxyphenyl)-6-(2-thiazolyl)-3,4,5,6-tetrahydro-2H-1,3-oxazin-2-one] | 21000 nM |
| CCCCOc1cc(C2(C)CCN(C)C(=O)O2)ccc1OC (centres unmarked) [Compound No. 54, 6-(3-butoxy-4-methoxyphenyl)-3,6-dimethyl-3,4,5,6-tetrahydro-2H-1,3-oxazin-2-one] | 2000 nM |
| COc1ccc(C2CCNC(=O)O2)cc1OC1CCN(Cc2ccccc2)CC1 (centres unmarked) [Compound No. 89, 6-[3-(1-benzyl-4-piperidyloxy)-4-methoxyphenyl]-3,4,5,6-tetrahydro-2H-1,3-oxazin-2-one] | 35000 nM |
| CCCCOc1cc(C2(C)CCNC(=O)O2)ccc1OC (centres unmarked) [Compound No. 52, 6-(3-butoxy-4-methoxyphenyl)-6-methyl-3,4,5,6-tetrahydro-2H-1,3-oxazin-2-one] | 1400 nM |
| COc1ccc([C@H]2OC(=O)NC[C@H]2c2ccccc2)cc1OC1CCCC1 (relative stereo) [Compound No. 91, rel-(5R,6S)-6-(3-cyclopentyloxy-4-methoxyphenyl)-5-phenyl-3,4,5,6-tetrahydro-2H-1,3-oxazin-2-one] | 2700 nM |
| CCC(CC)COc1cc(C2CCNC(=O)O2)ccc1OC (centres unmarked) [Compound No. 69, 6-[3-(2-ethylbutoxy)-4-methoxyphenyl]-3,4,5,6-tetrahydro-2H-1,3-oxazin-2-one] | 5000 nM |
| COc1ccc(C2CCNC(=O)O2)cc1OC1CCOC1 (centres unmarked) [Compound No. 93, 6-[3-(3-tetrahydrofuryloxy)-4-methoxyphenyl]-3,4,5,6-tetrahydro-2H-1,3-oxazin-2-one] | 3700 nM |
| COc1ccc(C2CCN(C)C(=O)O2)cc1OCCc1scnc1C (centres unmarked) [compound 73, 6-[4-methoxy-3-[2-(4-methyl-5-thiazolyl)ethoxy]phenyl]-3-methyl-3,4,5,6-tetrahydro-2H-1,3-oxazin-2-one] | 7300 nM |
| COc1ccc(C2CCN(C)C(=O)O2)cc1OCCc1cccc2ccccc12 (centres unmarked) [Compound No. 68, 6-[4-methoxy-3-[2-(1-naphthyl)ethoxy]phenyl]-3-methyl-3,4,5,6-tetrahydro-2H-1,3-oxazin-2-one] | 2600 nM |

Further compounds by falling IC50, results first:

| IC50 | SMILES |
| --- | --- |
| 2000 nM | COc1ccc(C2CCN(Cc3ccco3)C(=O)O2)cc1OC1CCCC1 (centres unmarked) [Compound No. 35, 6-(3-cyclopentyloxy-4-methoxyphenyl)-3-(2-furylmethyl)-3,4,5,6-tetrahydro-2H-1,3-oxazin-2-one] |
| 1800 nM | CCOC(=O)CN1CCC(c2ccc(OC)c(OC3CCCC3)c2)OC1=O (centres unmarked) [Compound No. 19, 6-(3-cyclopentyloxy-4-methoxyphenyl)-3-(ethoxycarbonylmethyl)-3,4,5,6-tetrahydro-2H-1,3-oxazin-2-one] |
| 1800 nM | COc1ccc(C2CCN(C)C(=O)O2)cc1OCCc1ccc(F)cc1 (centres unmarked) [Compound No. 75, 6-[3-[2-(4-fluorophenyl)ethoxy]-4-methoxyphenyl]-3-methyl-3,4,5,6-tetrahydro-2H-1,3-oxazin-2-one] |
| 1700 nM | COc1ccc(C2CCNC(=O)O2)cc1OCCc1ccccn1 (centres unmarked) [Compound No. 55, 6-[4-methoxy-3-[2-(2-pyridyl)ethoxy]phenyl]-3,4,5,6-tetrahydro-2H-1,3-oxazin-2-one] |
| 1700 nM | COc1ccc(C2CCN(Cc3cccc4ccccc34)C(=O)O2)cc1OC1CCCC1 (centres unmarked) [Compound No. 13, 6-(3-cyclopentyloxy-4-methoxyphenyl)-3-(1-naphthylmethyl)-3,4,5,6-tetrahydro-2H-1 3-oxazin-2-one] |
| 1600 nM | COc1ccc(C2(c3cccnc3)CCNC(=O)O2)cc1OC1CCCC1 (centres unmarked) [Compound No. 36, 6-(3-cyclopentyloxy-4-methoxyphenyl)-6-(3-pyridyl)-3,4,5,6-tetrahydro-2H-1,3-oxazin-2-one] |
| 1500 nM | COc1ccc(C2CCNC(=O)O2)cc1OC1(C)CCCC1 (centres unmarked) [Compound No. 80, 6-[4-methoxy-3-(1-methylcyclopentyloxy)phenyl]-3,4,5,6-tetrahydro-2H-1,3-oxazin-2-one] |
| 1300 nM | COc1ccc(C2CCNC(=O)O2)cc1OCCc1ccc(F)cc1 (centres unmarked) [Compound No. 74, 6-[3-[2-(4-fluorophenyl)ethoxy]-4-methoxyphenyl]-3,4,5,6-tetrahydro-2H-1,3-oxazin-2-one] |
| 860 nM | COc1ccc(C2OC(=O)N(C)CC2(C)C)cc1OC1CCCC1 (centres unmarked) [Compound No. 86, 6-(3-cyclopentyloxy-4-methoxyphenyl)-3,5,5-trimethyl-3,4,5,6-tetrahydro-2H-1,3-oxazin-2-one] |
| 730 nM | COc1ccc(C2CCNC(=O)O2)cc1OCCCCCc1ccccc1 (centres unmarked) [Compound No. 41, 6-[4-methoxy-3-(5-phenylpentyloxy)phenyl]-3,4,5,6-tetrahydro-2H-1,3-oxazin-2-one] |
| 700 nM | COc1ccc(C2(C)CCN(C)C(=O)O2)cc1OCCc1ccccc1 (centres unmarked) [Compound No. 48, 3. 6-dimethyl-6-(4-methoxy-3-phenethyloxyphenyl)-3,4,5,6-tetrahydro-2H-1,3-oxazin-2-one] |
| 220 nM | COc1ccc(C2(C)CCN(C)C(=O)O2)cc1OCCCCCc1ccccc1 (centres unmarked) [Compound No. 47, 3,6-dimethyl-6-[4-methoxy-3-(5-phenylpentyloxy)phenyl]-3,4,5,6-tetrahydro-2H-1,3-oxazin-2-one] |
| 73 nM | COc1ccc(C2CCN(Cc3ccc4ccccc4n3)C(=O)O2)cc1OC1CCCC1 (centres unmarked) [Compound No. 12, 6-(3-cyclopentyloxy-4-methoxyphenyl)-3-(2-quinolylmethyl)-3,4,5 6-tetrahydro-2H-1,3-oxazin-2-one] |
